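Values below derive from 48-hour exposures of cells grown in 96-well plates, with endpoints linearly interpolated between the two concentrations bracketing the appropriate inhibition level. Abbreviation: GI50, concentration required for 50% inhibition of growth. TGI: total growth inhibition.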
Assays:
Test in all cases: growth of human tumour cells (NCI), 48 h
[1] = test system: 786-0 renal
[2] = test system: A498 renal
[3] = test system: A549 NSCLC
[4] = test system: ACHN renal
[5] = test system: BT-549 breast
[6] = test system: CCRF-CEM leukemia
[7] = test system: COLO 205 colon
[8] = test system: DU-145 prostate
[9] = test system: EKVX NSCLC
[10] = test system: HCC-2998 colon
[11] = test system: HCT-116 colon
[12] = test system: HCT-15 colon
[13] = test system: HL-60(TB) leukemia
[14] = test system: HOP-62 NSCLC
[15] = test system: HOP-92 NSCLC
[16] = test system: HS 578T breast
[17] = test system: HT29 colon
[18] = test system: IGROV1 ovarian
[19] = test system: K-562 leukemia
[20] = test system: KM12 colon
[21] = test system: LOX IMVI melanoma
[22] = test system: M14 melanoma
[23] = test system: MALME-3M melanoma
[24] = test system: MCF7 breast
[25] = test system: MDA-MB-231 breast
[26] = test system: MDA-MB-435
[27] = test system: MOLT-4 leukemia
[28] = test system: NCI-H226 lung
[29] = test system: NCI-H23 lung
[30] = test system: NCI-H460 lung
[31] = test system: NCI-H522 lung
[32] = test system: NCI/ADR-RES ovarian
[33] = test system: OVCAR-3 ovarian
[34] = test system: OVCAR-4 ovarian
[35] = test system: OVCAR-5 ovarian
[36] = test system: OVCAR-8 ovarian
[37] = test system: PC-3 prostate
[38] = test system: RPMI-8226 leukemia
[39] = test system: RXF 393 renal
[40] = test system: SF-268 CNS
[41] = test system: SF-295 CNS
[42] = test system: SF-539 CNS
[43] = test system: SK-MEL-2 melanoma
[44] = test system: SK-MEL-28 melanoma
[45] = test system: SK-MEL-5 melanoma
[46] = test system: SK-OV-3 ovarian
[47] = test system: SN12C renal
[48] = test system: SNB-19 CNS
[49] = test system: SNB-75 CNS
[50] = test system: SR leukemia
[51] = test system: SW-620 colon
[52] = test system: T-47D breast
[53] = test system: TK-10 renal
[54] = test system: U251 CNS
[55] = test system: UACC-257 melanoma
[56] = test system: UACC-62 melanoma
[57] = test system: UO-31 renal

With `CC(=O)OC[C@]1(C)C=C2C(=O)[C@](C)(O)C3(CC3)C(C)=C2[C@H]1OC(=O)N(C)CCN(C)C(=O)OC(C)(C)C` the GI50 [1] was 0.938 µM, the TGI [1] was 2.8 µM and the GI50 [2] was 1.3 µM. For the same molecule, the TGI [2] was 4.83 µM, the GI50 [3] was 1.36 µM and the TGI [3] was 31.1 µM. The GI50 [4] was 0.947 µM, the TGI [4] was 4.2 µM and the GI50 [5] was 0.898 µM. The TGI [5] was 3.13 µM, the GI50 [6] was 1.44 µM and the TGI [6] was greater than 33.3 µM. The GI50 [7] was 0.744 µM, the TGI [7] was 2.58 µM and the GI50 [8] was 0.85 µM. The TGI [8] was 20.9 µM, the GI50 [9] was 1.7 µM and the TGI [9] was 10.7 µM. For the same molecule, the GI50 [10] was 1.08 µM, the TGI [10] was 3.74 µM and the GI50 [11] was 0.904 µM. For the same molecule, the TGI [11] was greater than 33.3 µM, the GI50 [12] was 0.889 µM and the TGI [12] was greater than 33.3 µM. It also gave a GI50 [13] of 0.949 µM, a TGI [13] greater than 33.3 µM and a GI50 [14] of 1.01 µM. The TGI [14] was 3.79 µM, the GI50 [15] was 1.08 µM and the TGI [15] was 3.02 µM. It also gave a GI50 [16] of 2.17 µM, a TGI [16] of 14.9 µM and a GI50 [17] of 0.612 µM. For the same molecule, the TGI [17] was 3.26 µM, the GI50 [18] was 0.732 µM and the TGI [18] was 3.9 µM. For the same molecule, the GI50 [19] was 1.4 µM, the TGI [19] was greater than 33.3 µM and the GI50 [20] was 1.35 µM. For the same molecule, the TGI [20] was 30.7 µM, the GI50 [21] was 1.04 µM and the TGI [21] was 7.18 µM. For the same molecule, the GI50 [22] was 0.788 µM, the TGI [22] was 2.4 µM and the GI50 [23] was 0.784 µM. It also gave a TGI [23] of 2.27 µM, a GI50 [24] of 0.652 µM and a TGI [24] greater than 33.3 µM. It also gave a GI50 [25] of 1.11 µM, a TGI [25] of 4.72 µM and a GI50 [26] of 0.809 µM. It also gave a TGI [26] of 2.35 µM, a GI50 [27] of 1.55 µM and a TGI [27] greater than 33.3 µM. For the same molecule, the GI50 [28] was 9.01 µM, the TGI [28] was 25.1 µM and the GI50 [29] was 0.651 µM. The TGI [29] was 1.91 µM, the GI50 [30] was 0.833 µM and the TGI [30] was 4.19 µM. The GI50 [31] was 0.668 µM, the TGI [31] was 1.62 µM and the GI50 [32] was 0.812 µM. It also gave a TGI [32] of 2.55 µM, a GI50 [33] of 1.06 µM and a TGI [33] of 4.05 µM. The GI50 [34] was 0.797 µM, the TGI [34] was 2.72 µM and the GI50 [35] was 1.09 µM. It also gave a TGI [35] of 7.18 µM, a GI50 [36] of 1.05 µM and a TGI [36] of 32.5 µM. For the same molecule, the GI50 [37] was 1.12 µM, the TGI [37] was 6.51 µM and the GI50 [38] was 2.27 µM. It also gave a TGI [38] of 19.1 µM, a GI50 [39] of 0.581 µM and a TGI [39] of 1.32 µM. For the same molecule, the GI50 [40] was 1.17 µM, the TGI [40] was 8.57 µM and the GI50 [41] was 0.926 µM. The TGI [41] was 4.88 µM, the GI50 [42] was 0.816 µM and the TGI [42] was 2.24 µM. For the same molecule, the GI50 [43] was 0.695 µM, the TGI [43] was 1.42 µM and the GI50 [44] was 1.2 µM. For the same molecule, the TGI [44] was 4.69 µM, the GI50 [45] was 0.63 µM and the TGI [45] was 1.4 µM. The GI50 [46] was 1.18 µM, the TGI [46] was 5.33 µM and the GI50 [47] was 1.22 µM. For the same molecule, the TGI [47] was 7.83 µM, the GI50 [48] was 1.19 µM and the TGI [48] was greater than 33.3 µM. For the same molecule, the GI50 [49] was 1.87 µM, the TGI [49] was 8.11 µM and the GI50 [50] was 0.961 µM. The TGI [50] was greater than 33.3 µM, the GI50 [51] was 0.896 µM and the TGI [51] was greater than 33.3 µM. For the same molecule, the GI50 [52] was 0.858 µM, the TGI [52] was 9.64 µM and the GI50 [53] was 1.37 µM. For the same molecule, the TGI [53] was 6.87 µM, the GI50 [54] was 1.11 µM and the TGI [54] was greater than 33.3 µM. For the same molecule, the GI50 [55] was 1.82 µM, the TGI [55] was 13.8 µM and the GI50 [56] was 0.728 µM. The TGI [56] was 1.61 µM, the GI50 [57] was 0.732 µM and the TGI [57] was 2.23 µM.

Reference: PubChem BioAssay (NCI)
